Assay [1] has as its target HER2 InsYVMA (Homo sapiens (Human), UniProt P04626, INS775YVMA). In words: TR-FRET assay for ERBB kinases. The format is biochemical. To be noted: geometric mean if measured more than once. The method, then:
TR-FRET Assay for ERBB Kinases
All compounds and PROTACs were serially diluted in three-fold increments using 100% DMSO, followed by an intermediate 10-fold dilution using Buffer A (50 mM HEPES, pH 7.5, 50 mM NaCl, 10 mM MgCl2, 1 mM DTT, and 0.1% Pluronic F-68). Two microliters of serially diluted compound or PROTAC were then transferred to black 384-well Proxiplates (PerkinElmer, #6008260) using an Integra Viaflo96. Next, 10 uL of protein kinase in Buffer A was added to each well of the assay plate and pre-incubated with compound for 10 minutes. Kinase reactions were then initiated by addition of 5 uL substrate mix containing 3 mM ATP and 30 uM fluorescein-labeled Poly-GluTyr (Thermo Fisher, #PV3610) in Buffer A and allowed to proceed for 10 minutes at room temperature. Reactions were quenched by addition of a 5 uL mixture containing 5 nM LanthaScreen® Tb-pY20 Antibody (Thermo Fisher, #PV3552) and 40 mM EDTA in Buffer A. Assay plates were then read using a Synergy2 (Biotek Instruments, Winooski, Vt.) via excitation thru a 340/20 nm bandpass filter and emission collected thru 490/10 nm (donor) and 520/25 nm (acceptor) bandpass filters. The final kinase concentrations used for each 15 uL reaction were as follows: 0.2 nM EGFR Exon20NPG (SignalChem, #E10-132GG), 0.1 nM wild type EGFR (BPS Bioscience, #40187), 0.3 nM EGFR L858R/T790M/C797S (BPS Bioscience, #40351), 0.1 nM EGFR L858R (BPS Bioscience, #40189), 0.4 nM L858R/T790M (BPS Bioscience, #40350), InM EGFR Dell9 (SignalChem, #E10-122JG), 10 nM EGFR Dell9 T790M (SignalChem, #E10-122KG), 0.3 nM Her2 (BPS Bioscience, #40230), 15 nM Her2 InsYVMA (SignalChem, #E27-13BG).
A general note: In TR-FRET formats the signal depends on donor and acceptor labels being close together.

Assay [2] concerns the target EGFR L858R/T790M double mutant (H1975) (Homo sapiens (Human), UniProt P00533, L858R/T790M). In words: EGFR protein degradation assay (Western blot). The format is cell-based. To be noted: 72 hours, 300 nM to 10 nM. The method, boiled down:
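EGFR protein levels were measured by immunoblotting. Lysate protein was quantified by BCA, and 10 μg per sample was separated by SDS/PAGE at 165V for 2 hours and transferred to PVDF. Membranes were blocked in TBS-T with 5% milk for 1 hour, probed overnight at 4° C with EGFR and tubulin antibodies, then secondary antibody for 1 hour, and detected by ECL on a Chemidoc.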
(In general: In western blotting, separated proteins are transferred to a membrane and probed.)

In assay [3] the target is EGFR L858R (Homo sapiens (Human), UniProt P00533, L858R). In words: TR-FRET assay for ERBB kinases. The format is biochemical. To be noted: geometric mean if measured more than once. The method, boiled down: (§1)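 Phosphorylation of fluorescein-labeled poly-GluTyr read as TR-FRET using Tb-pY20 antibody after EDTA stop, with 340 nm excitation. Kinase reaction ran 10 min at room temperature following 10 min compound pre-incubation; substrate mix held 3 mM ATP and 30 µM peptide before addition. Buffer was HEPES pH 7.5.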

Assay [4] deals with EGFR Δ19/746/750 (Homo sapiens (Human), UniProt P00533, DEL746-750). In words: TR-FRET assay for ERBB kinases. To be noted: geometric mean if measured more than once. The assay is classed as biochemical. Put shortly: as §1
Assay [5] addresses EGFR Δ19/746/750 T790M (Homo sapiens (Human), UniProt P00533, DEL746-750/T790M). In words: TR-FRET assay for ERBB kinases. The format is biochemical. To be noted: geometric mean if measured more than once. Put shortly:
as §1

Assay [6] addresses HER2WT (Homo sapiens (Human), UniProt P04626). Nature of the assay: TR-FRET assay for ERBB kinases. The assay is classed as biochemical. To be noted: geometric mean if measured more than once. Put shortly:
as §1

The target of assay [7] is EGFR WT (Homo sapiens (Human), UniProt P00533). In words: TR-FRET assay for ERBB kinases. To be noted: geometric mean if measured more than once. The assay is classed as biochemical. The method, boiled down: (§2)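 Kinase + cmpd preinc 10 min; start with mix of 3 mM ATP / 30 uM fluorescein poly-GluTyr (mix concs); 10 min RT; stop with 5 nM Tb-pY20 Ab / 40 mM EDTA. Buffer 50 mM HEPES pH 7.5, 10 mM MgCl2.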

For assay [8], the target named is EGFR L858R/T790M (Homo sapiens (Human), UniProt P00533, L858R/T790M). Nature of the assay: TR-FRET assay for ERBB kinases. To be noted: geometric mean if measured more than once. The assay is classed as biochemical. The method, boiled down:
as §2

The target in assay [9] is EGFR L858R/T790M/C797S (Homo sapiens (Human), UniProt P00533, C797S/L858R/T790M). Nature of the assay: TR-FRET assay for ERBB kinases. The assay is classed as biochemical. To be noted: geometric mean if measured more than once. Put shortly: as §2
The target in assay [10] is EGFR Exon20NPG (Homo sapiens (Human), UniProt P00533, INS770NPG). In words: TR-FRET assay for ERBB kinases. To be noted: geometric mean if measured more than once. The format is biochemical. Put shortly: as §1
Assay [11] addresses exon-19 deletion EGFR (Homo sapiens (Human), UniProt P00533, DEL746-750). In words: Immunoblot of EGFR degradation in HCC827 cells. The assay is classed as cell-based. To be noted: 24 hours. The protocol:
(§3) Cells were treated with the indicated concentrations of PROTAC or corresponding inhibiting diastereomer for the specified time and then harvested in lysis buffer (25 mM Tris.HCl pH 7.5 with 1% NP-40 and 0.25% deoxycholate, supplemented with 10 mM sodium pyrophosphate, 20 mM ß-glycerophosphate, 10 mM sodium fluoride, 1 mM sodium orthovanadate, 0.1 mM phenylarsine oxide, 10 μg/ml leupeptin, 10 μg/ml pepstatin A, 30 μg/ml bestatin, 0.3 trypsin inhibitor units/ml aprotinin and 1 mM PMSF). Following centrifugation at 16,000×g for 10 min at 4° C. to pellet insoluble materials, the protein concentrations of the supernatants were quantitated by BCA assay (Thermo Fisher Scientific). Protein samples were resolved by 8% SDS-PAGE, electrophoretically transferred to nitrocellulose and probed with the antibodies listed above. Immunoblots were developed using enhanced chemiluminescence and visualized using a Bio-Rad Chemi-Doc MP Imaging System and quantitated with Image Lab v.5.2.1 software (Bio-Rad Laboratories).

In assay [12] the target is L858R EGFR (Homo sapiens (Human), UniProt P00533, L858R). In words: Immunoblot of EGFR degradation in H3255 cells. The assay is classed as cell-based. To be noted: 24 hours. The method, then: as §3
Assay [13] concerns the target WT EGFR (Homo sapiens (Human), UniProt P00533). Nature of the assay: Immunoblot of EGFR degradation in OVCAR8 cells. The format is cell-based. To be noted: 24 hours. The method, then:
as §3

Assay [14] addresses HER3 (Homo sapiens (Human), UniProt P21860). Nature of the assay: TR-FRET assay for ERBB kinases. The assay is classed as biochemical. To be noted: geometric mean if measured more than once.
In assay [15] the target is EGFR Exon 20 ASV (HeLa*) (Homo sapiens (Human), UniProt P00533, DUP767-769). Nature of the assay: EGFR protein degradation assay (Western blot). To be noted: 72 hours, 300 nM to 10 nM. The assay is classed as cell-based.
Assay [16] has as its target EGFR-Δ19 (HCC827) (Homo sapiens (Human), UniProt P00533, DEL746-750). Nature of the assay: EGFR protein degradation assay (Western blot). The assay is classed as cell-based. To be noted: 72 hours, 300 nM to 10 nM.
For assay [17], the target named is EGFR-wt (MDA-MB-231 or MCF7 or A549 or OVCAR8) (Homo sapiens (Human), UniProt P00533). Nature of the assay: EGFR protein degradation assay (Western blot). The assay is classed as cell-based. To be noted: 72 hours, 300 nM to 10 nM. The method, boiled down: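 EGFR degradation was assessed by Western blot. Cells expressing the appropriate EGFR were seeded in 6-well plates (300,000 cells per well) and adhered overnight. Media was removed, cells were washed with cold phosphate-buffered saline, scraped into 400 μl Cell Signaling lysis buffer plus protease inhibitor cocktail, and spun once at 10 000 rpm for 10 minutes. After BCA quantification, loading buffer and reducing agent were added. Gels loaded with 10 μg protein ran at 165V for 2 hours, and bands were visualized by chemiluminescence.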

Some results are limits rather than exact numbers.

Chain of HER2WT (P04626 23-1255): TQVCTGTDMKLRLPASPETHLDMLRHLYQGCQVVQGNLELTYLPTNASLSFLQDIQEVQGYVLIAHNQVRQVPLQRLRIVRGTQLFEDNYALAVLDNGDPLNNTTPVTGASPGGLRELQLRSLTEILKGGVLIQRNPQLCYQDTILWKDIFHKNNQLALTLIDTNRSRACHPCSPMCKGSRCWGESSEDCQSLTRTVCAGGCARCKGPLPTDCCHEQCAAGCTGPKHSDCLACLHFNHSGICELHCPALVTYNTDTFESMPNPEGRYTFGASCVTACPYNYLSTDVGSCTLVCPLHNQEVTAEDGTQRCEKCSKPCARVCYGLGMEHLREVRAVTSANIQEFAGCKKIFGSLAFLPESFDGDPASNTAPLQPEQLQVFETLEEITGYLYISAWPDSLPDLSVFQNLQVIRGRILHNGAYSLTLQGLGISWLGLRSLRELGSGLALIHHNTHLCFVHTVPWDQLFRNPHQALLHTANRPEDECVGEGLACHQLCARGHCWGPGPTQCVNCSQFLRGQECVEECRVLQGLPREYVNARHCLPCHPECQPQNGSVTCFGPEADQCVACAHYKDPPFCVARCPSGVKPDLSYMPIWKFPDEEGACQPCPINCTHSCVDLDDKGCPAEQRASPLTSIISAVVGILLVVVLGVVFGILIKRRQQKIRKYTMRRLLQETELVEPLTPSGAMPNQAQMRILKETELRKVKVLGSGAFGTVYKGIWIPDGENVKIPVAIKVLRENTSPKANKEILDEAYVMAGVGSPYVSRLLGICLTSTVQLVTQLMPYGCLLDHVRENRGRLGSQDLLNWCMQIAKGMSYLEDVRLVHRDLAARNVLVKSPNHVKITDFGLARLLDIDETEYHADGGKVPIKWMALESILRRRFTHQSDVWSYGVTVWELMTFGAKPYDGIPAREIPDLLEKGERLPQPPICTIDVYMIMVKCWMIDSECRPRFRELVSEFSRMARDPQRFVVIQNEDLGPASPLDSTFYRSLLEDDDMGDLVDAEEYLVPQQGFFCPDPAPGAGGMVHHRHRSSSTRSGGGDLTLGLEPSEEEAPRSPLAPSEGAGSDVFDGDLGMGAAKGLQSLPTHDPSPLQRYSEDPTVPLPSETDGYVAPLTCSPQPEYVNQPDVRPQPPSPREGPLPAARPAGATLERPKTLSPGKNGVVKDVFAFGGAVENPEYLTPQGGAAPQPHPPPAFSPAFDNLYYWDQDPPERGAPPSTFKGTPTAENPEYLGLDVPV
Chain of HER2 InsYVMA (P04626 other isoform, or with tags, fused parts or gaps del 1-675/ins YVMA behind 775 limits assumed): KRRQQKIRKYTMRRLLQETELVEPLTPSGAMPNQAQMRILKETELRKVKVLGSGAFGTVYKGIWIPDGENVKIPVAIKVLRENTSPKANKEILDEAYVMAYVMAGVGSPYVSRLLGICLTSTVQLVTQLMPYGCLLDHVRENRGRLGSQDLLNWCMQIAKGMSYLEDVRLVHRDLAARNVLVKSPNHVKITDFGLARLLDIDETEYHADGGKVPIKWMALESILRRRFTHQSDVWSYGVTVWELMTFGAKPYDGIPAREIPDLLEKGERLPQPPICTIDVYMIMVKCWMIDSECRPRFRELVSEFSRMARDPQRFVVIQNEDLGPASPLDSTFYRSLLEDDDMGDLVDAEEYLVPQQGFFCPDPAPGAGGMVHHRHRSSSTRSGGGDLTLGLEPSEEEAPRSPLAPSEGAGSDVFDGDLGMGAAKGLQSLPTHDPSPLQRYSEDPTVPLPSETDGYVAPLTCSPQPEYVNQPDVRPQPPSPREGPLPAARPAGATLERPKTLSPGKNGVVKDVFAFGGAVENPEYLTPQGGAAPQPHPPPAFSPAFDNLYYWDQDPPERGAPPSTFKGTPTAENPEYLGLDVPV
Chain of HER3 (P21860 20-1342, species assumed): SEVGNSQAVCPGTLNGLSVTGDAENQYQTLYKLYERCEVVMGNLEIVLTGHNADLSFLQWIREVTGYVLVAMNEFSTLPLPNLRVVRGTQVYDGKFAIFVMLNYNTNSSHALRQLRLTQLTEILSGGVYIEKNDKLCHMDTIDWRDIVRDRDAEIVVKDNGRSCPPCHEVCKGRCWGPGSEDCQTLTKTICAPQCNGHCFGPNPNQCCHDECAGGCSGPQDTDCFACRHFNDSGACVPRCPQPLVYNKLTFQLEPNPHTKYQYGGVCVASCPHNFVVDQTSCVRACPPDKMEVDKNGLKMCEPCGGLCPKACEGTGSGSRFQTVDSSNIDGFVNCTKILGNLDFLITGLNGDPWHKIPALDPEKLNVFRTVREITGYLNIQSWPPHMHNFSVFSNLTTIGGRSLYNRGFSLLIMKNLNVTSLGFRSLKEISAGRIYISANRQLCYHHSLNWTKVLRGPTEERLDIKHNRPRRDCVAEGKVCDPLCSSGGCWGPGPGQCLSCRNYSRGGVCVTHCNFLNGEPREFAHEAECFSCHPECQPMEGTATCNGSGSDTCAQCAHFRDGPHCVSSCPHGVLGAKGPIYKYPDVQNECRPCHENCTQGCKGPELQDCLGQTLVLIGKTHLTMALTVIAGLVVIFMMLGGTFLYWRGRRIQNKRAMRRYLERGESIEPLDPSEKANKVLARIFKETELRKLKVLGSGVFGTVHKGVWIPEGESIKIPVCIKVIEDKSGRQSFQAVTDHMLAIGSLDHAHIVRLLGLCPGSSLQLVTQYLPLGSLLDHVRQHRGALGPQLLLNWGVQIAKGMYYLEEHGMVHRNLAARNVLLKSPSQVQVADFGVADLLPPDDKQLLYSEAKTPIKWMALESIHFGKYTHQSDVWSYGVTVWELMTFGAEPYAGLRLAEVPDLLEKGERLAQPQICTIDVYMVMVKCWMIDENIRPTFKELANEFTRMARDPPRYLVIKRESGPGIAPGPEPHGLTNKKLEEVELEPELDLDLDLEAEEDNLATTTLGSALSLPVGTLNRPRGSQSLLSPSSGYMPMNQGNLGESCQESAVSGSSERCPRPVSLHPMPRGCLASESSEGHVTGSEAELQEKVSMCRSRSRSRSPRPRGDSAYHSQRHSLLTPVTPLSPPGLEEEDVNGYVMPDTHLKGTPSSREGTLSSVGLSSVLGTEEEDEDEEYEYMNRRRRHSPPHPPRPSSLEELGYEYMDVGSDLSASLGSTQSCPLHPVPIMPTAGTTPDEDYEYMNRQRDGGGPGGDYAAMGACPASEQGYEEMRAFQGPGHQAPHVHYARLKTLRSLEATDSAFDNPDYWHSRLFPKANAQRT

Regarding `COC1CCN(c2nccc(Nc3cc4c(cn3)nc(COCCOCCOCCOc3ccc5c(c3)C(=O)N(C3CCC(=O)NC3=O)C5=O)n4C(C)C)n2)CC1` (stereo not shown) [Example 70, 2-(2,6-dioxopiperidin-3-yl)-5-(2-(2-(2-((1-isopropyl-6-((2-(4-methoxypiperidin-1-yl)pyrimidin-4-yl)amino)-1H-imidazo[4,5-c]pyridin-2-yl)methoxy)ethoxy)ethoxy)ethoxy)isoindoline-1,3-dione], the IC50 (in general, the concentration that gives 50% inhibition) in assay [1] is 19 µM; in [3], above 30 µM; in assay [4], above 30 µM; in [5] it was 11 µM; in assay [6], above 30 µM; in [7] it was above 30 µM. The IC50 in [8] is 15 µM; in assay [9], 16 µM. Further, the “EGFR protein remaining, EGFR L858R/T790M double mutant” value in [2] is on record as “C (>80% EGFR protein remaining after 72 hours of incubation with the test compound at a concentration of 300 nM)”.

In the case of `COC1CCN(c2nccc(Nc3cc4c(cn3)nc(COCCN3CCN(c5ccc6c(c5)C(=O)N(C5CCC(=O)NC5=O)C6=O)CC3)n4C(C)C)n2)CC1` (stereo not shown) [Example 71, 2-(2,6-dioxopiperidin-3-yl)-5-(4-(2-((1-isopropyl-6-((2-(4-methoxypiperidin-1-yl)pyrimidin-4-yl)amino)-1H-imidazo[4,5-c]pyridin-2-yl)methoxy)ethyl)piperazin-1-yl)isoindoline-1,3-dione], the IC50 in assay [1] is 13 µM; in assay [3], 26 µM; in assay [4] it was above 30 µM; in assay [5] it was 3.1 µM; in assay [10], above 30 µM; in assay [6], above 30 µM. Also, the IC50 in assay [7] came to 30 µM; in assay [8], 0.12 µM; in assay [9], 0.096 µM. In addition, the “EGFR protein remaining, EGFR L858R/T790M double mutant” value in [2] is “C (>80% EGFR protein remaining after 72 hours of incubation with the test compound at a concentration of 300 nM)”.

On to `COc1cc2ncnc(Nc3ccc(F)c(Cl)c3)c2cc1OCCCCCOCCOCCC(=O)N[C@H](C(=O)N1C[C@H](O)C[C@H]1C(=O)NCc1ccc(-c2scnc2C)cc1)C(C)(C)C` [PROTAC 3], for which the “degradation of exon-19 deletion EGFR (immunoblot)” value in [11] is reported as “enabled the degradation”. Moreover, the “degradation of L858R EGFR (immunoblot)” value in [12] is “enabled the degradation”. Also, in assay [13], the “EGFR degradation (immunoblot)” value is listed as “sparing the WT EGFR”.

Regarding `COc1cc2ncnc(Nc3ccc(F)c(Cl)c3)c2cc1NC(=O)/C=C/CN(C)CCCOCCCOCC(=O)N[C@H](C(=O)N1CC(O)C[C@@H]1C(=O)NCc1ccc(-c2scnc2C)cc1)C(C)(C)C` (stereo partly shown) [compound 48], the IC50 is 20 µM in assay [14]; 0.12 µM in assay [10]; 0.0047 µM in assay [7]; 3 µM in assay [8]; 7 µM in assay [9]. For the same compound, the “EGFR protein remaining, EGFR Exon 20 ASV” value in assay [15] is “C (>80% EGFR protein remaining after 72 hours of incubation with the test compound at a concentration of 300 nM)”. Further, the “EGFR protein remaining, EGFR L858R/T790M double mutant” value in [2] is “B (≤80% and >50% EGFR protein remaining after 72 hours of incubation with the test compound at a concentration between 300 nM and 10 nM)”. The “EGFR protein remaining, EGFR-Δ19” value in assay [16] was “A (≤50% EGFR protein remaining after 72 hours of incubation with the test compound at a concentration between 300 nM and 10 nM)”. In addition, in assay [17], the “EGFR protein remaining, EGFR-wt” value was “B (≤80% and >50% EGFR protein remaining after 72 hours of incubation with the test compound at a concentration between 300 nM and 10 nM)”.

Consider `COC1CCN(c2nccc(Nc3cc4c(cn3)nc(COCCOCCOCC(=O)N[C@H](C(=O)N3C[C@@H](O)C[C@@H]3C(=O)N[C@@H](C)c3ccc(-c5scnc5C)cc3)C(C)(C)C)n4C(C)C)n2)CC1` [compound 73], for which the IC50 in [1] is 3.4 µM; in assay [3] it was 9.8 µM; in [4], 8.1 µM; in assay [5], 6.8 µM; in assay [6], above 30 µM; in assay [7], 20 µM. The results for the IC50 in assay [8] and in assay [9] were 11 µM and 14 µM, respectively. Also, the “EGFR protein remaining, EGFR L858R/T790M double mutant” value in assay [2] is “C (>80% EGFR protein remaining after 72 hours of incubation with the test compound at a concentration of 300 nM)”.

Consider “(2S,4R)-1-((S,E)-2-(tert-butyl)-16-((4-((4-chloro-3-fluorophenyl)amino)-7-methoxyquinazolin-6-yl)amino)-12-methyl-4,16-dioxo-6,9-dioxa-3,12-diazahexadec-14-enoyl)-4-hydroxy-N-(4-(4-methylthiazol-5-yl)benzyl)pyrrolidine-2-carboxamide [Example 41]”, for which, in [2], the “EGFR protein remaining, EGFR L858R/T790M double mutant” value is “B (≤80% and >50% EGFR protein remaining after 72 hours of incubation with the test compound at a concentration between 300 nM and 10 nM)”. Further, in assay [16], the “EGFR protein remaining, EGFR-Δ19” value was “A (≤50% EGFR protein remaining after 72 hours of incubation with the test compound at a concentration between 300 nM and 10 nM)”. Moreover, the “EGFR protein remaining, EGFR-wt” value in [17] was “A (≤50% EGFR protein remaining after 72 hours of incubation with the test compound at a concentration between 300 nM and 10 nM)”.

(Values after patent publication US10994015B2, “EGFR proteolysis targeting chimeric molecules and associated methods of use” (Arvinas Operations, Inc., priority 2016, dated 2021).)
